{"source": "patent EP0185020B1", "about": "“NI[…] PREPARATION THEREOF AND UTILIZATION THEREOF IN ANTICANCEROUS CHEMIOTHERAPY” (CENTRE NATIONAL DE LA RECHERCHE SCIENTIFIQUE (CNRS), priority 1984, dated 1985)", "key": {"[1]": {"test_system": "leucémie L 1210 greffée i.p.", "assay": "Antitumour activity on L1210 leukaemia grafted i.p. in mice, A1 and A2 injected separately (ICIG, Example 12)", "format": "in vivo, souris B6D2F1/OLA", "settings": "for activité antitumorale sur la leucémie L 1210, in words: each isomer given separately i.v.; for T/C × 100: i.v.", "description": "Au jour J: 0, des souris mâles B6D2F1 âgées de trois mois reçoivent par voie intrapéritonéale 10^5 cellules de la souche leucémique L 1210. Les animaux sont répartis en lots de 8 à 10 animaux pour les groupes témoins et de 6 à 8 animaux pour les groupes traités. Aux jours J : 1, J : 5, J : 9, les animaux reçoivent par voie intrapéritonéale ou intraveineuse le traitement à différentes doses. La CNCC est administrée en suspension dans l'huile d'olive. Les produits selon l'invention sont administrés dans du sérum physiologique. La mortalité est enregistrée tous les jours. La médiane de survie des animaux traités et des animaux témoins a été déterminée. Les résultats sont considérés comme positifs lorsque l'index I = [formula] est supérieur à 125.\nLa valeur ∞ signifie que 50 à 100% des animaux sont survivants au jour J : 90.\nL'activité cytostatique sur la leucémie L 1210 de A, et A2 a été évaluée à l'ICIG chez des souris B6D2F1/OLA.\nII a en outre été procédé à l'ICIG à une étude de l'activité antitumorale sur la leucémie L 1210 de chaque isomère A, et AZ administré séparément par voie intraveineuse. Les résultats sont rassemblés sur le tableau IV. […] La comparaison des doses actives à celles de la CNCC est impossible pour les raisons d'insolubilité de la CNCC énoncées précédemment."}, "[2]": {"test_system": "Fibrosarcome I.C.I.G. C1 (implanté en sous-cutané)", "parameters": "key: N.S.: Non significatif; ∞: 50% en plus des animaux traités sont guéris", "settings": "jours 1,5,9, cited from earlier work"}, "[3]": {"test_system": "Carcinome pulmonaire de Lewis (implanté en sous-cutané)", "parameters": "key: N.S.: Non significatif; ∞: 50% en plus des animaux traités sont guéris", "settings": "jours 1,5,9, cited from earlier work"}, "[4]": {"test_system": "Adénocarcinome mammaire TM2 (implanté en sous-cutané)", "parameters": "key: N.S.: Non significatif; ∞: 50% en plus des animaux traités sont guéris", "settings": "jours 1,5,9, cited from earlier work"}, "[5]": {"test_system": "Carcinome du côlon (côlon 26) (implanté en sous-cutané)", "parameters": "key: N.S.: Non significatif; ∞: 50% en plus des animaux traités sont guéris", "settings": "Carcinome du côlon (côlon 26) s.c., jours 1,5,9, cited from earlier work"}, "[6]": {"test_system": "Leucémie L 1210 (greffée par voie i.c.)", "parameters": "key: N.S.: Non significatif; ∞: 50% en plus des animaux traités sont guéris", "settings": "Leucémie L 1210 i.c., jours 1,5,9, cited from earlier work"}, "[7]": {"test_system": "Mélano-carcinome B 16 (implanté en sous-cutané)", "parameters": "key: N.S.: Non significatif; ∞: 50% en plus des animaux traités sont guéris", "settings": "Mélano-carcinome B 16 s.c., jours 1,5,9, cited from earlier work"}, "[8]": {"test_system": "M 555 ovarienne (implanté en sous-cutané)", "parameters": "key: N.S.: Non significatif; ∞: 50% en plus des animaux traités sont guéris", "settings": "M 555 ovarienne s.c., jours 1,5,9, cited from earlier work"}, "[9]": {"test_system": "Gliome 26 (implanté en sous-cutané)", "parameters": "key: N.S.: Non significatif; ∞: 50% en plus des animaux traités sont guéris", "settings": "Gliome 26 s.c., jours 1,5,9, cited from earlier work"}}, "note": "Where two headings read alike, the source gives them in different places."}
{"smiles": "C[S+]([O-])CCN(N=O)C(=O)NCCCl", "note": "(stereo not drawn) [A1]", "values": [{"measurement": "activité antitumorale sur la leucémie L 1210, in words", "setting": "[1]", "result": "faible activité"}, {"measurement": "T/C × 100", "setting": "[1]; 5 mg/kg", "result": 100}, {"measurement": "T/C × 100", "setting": "[1]; 10 mg/kg", "result": 100}, {"measurement": "T/C × 100", "setting": "[1]; 20 mg/kg", "result": 133}, {"measurement": "T/C × 100", "setting": "[1]; 30 mg/kg", "result": 133}, {"measurement": "T/C × 100", "setting": "[1]; 40 mg/kg", "result": 158}, {"measurement": "T/C × 100", "setting": "[1]; 50 mg/kg", "result": 158}, {"measurement": "T/C × 100", "setting": "[1]; 60 mg/kg", "result": "Toxique"}]}
{"smiles": "C[S+]([O-])CCNC(=O)N(CCCl)N=O", "note": "(stereo not drawn) [A2]", "values": [{"measurement": "activité antitumorale sur la leucémie L 1210, in words", "setting": "[1]", "result": "forte activité"}, {"measurement": "T/C × 100", "setting": "[1]; 1 mg/kg", "result": 100}, {"measurement": "T/C × 100", "setting": "[1]; 5 mg/kg", "result": "∞ (La valeur ∞ signifie que 50 à 100% des animaux sont survivants au jour J : 90)"}, {"measurement": "T/C × 100", "setting": "[1]; 10 mg/kg", "result": "∞ (La valeur ∞ signifie que 50 à 100% des animaux sont survivants au jour J : 90)"}, {"measurement": "T/C × 100", "setting": "[1]; 20 mg/kg", "result": 63}, {"measurement": "T/C × 100", "setting": "[1]; 30 mg/kg", "result": 63}, {"measurement": "T/C × 100", "setting": "[1]; 40 mg/kg", "result": 63}]}
{"smiles": "O=NN(CCCl)C(=O)N[C@H]1C(O)O[C@H](CO)[C@@H](O)[C@@H]1O", "note": "(stereo partly drawn) [CHLOROZOTOCINE]", "values": [{"measurement": "Augmentation de la durée de survie (I.L.S.: T/C×100)", "setting": "[2]; 15 mg/kg I.P.", "result": "∞ (50% en plus des animaux traités sont guéris)"}, {"measurement": "Augmentation de la durée de survie (I.L.S.: T/C×100)", "setting": "[3]; 15 mg/kg I.P.", "result": "N.S."}, {"measurement": "Augmentation de la durée de survie (I.L.S.: T/C×100)", "setting": "[4]; 15 mg/kg I.P.", "result": "N.S."}, {"measurement": "Augmentation de la durée de survie (I.L.S.: T/C×100)", "setting": "[5]; 15 mg/kg I.P.", "result": "∞ (50% en plus des animaux traités sont guéris)"}, {"measurement": "Augmentation de la durée de survie (I.L.S.: T/C×100)", "setting": "[6]; 15 mg/kg I.P.", "result": "N.S."}, {"measurement": "Augmentation de la durée de survie (I.L.S.: T/C×100)", "setting": "[7]; 15 mg/kg I.P.", "result": "N.S."}, {"measurement": "Augmentation de la durée de survie (I.L.S.: T/C×100)", "setting": "[8]; 15 mg/kg I.P.", "result": "∞ (50% en plus des animaux traités sont guéris)"}, {"measurement": "Augmentation de la durée de survie (I.L.S.: T/C×100)", "setting": "[9]; 15 mg/kg I.P.", "result": "N.S."}]}
{"smiles": "O=NN(CCCl)C(=O)NCCO", "note": "[HECNU]", "values": [{"measurement": "Augmentation de la durée de survie (I.L.S.: T/C×100)", "setting": "[2]; 10 mg/kg I.P.", "result": "N.S."}, {"measurement": "Augmentation de la durée de survie (I.L.S.: T/C×100)", "setting": "[3]; 10 mg/kg I.P.", "result": "∞ (50% en plus des animaux traités sont guéris)"}, {"measurement": "Augmentation de la durée de survie (I.L.S.: T/C×100)", "setting": "[4]; 10 mg/kg I.P.", "result": 165}, {"measurement": "Augmentation de la durée de survie (I.L.S.: T/C×100)", "setting": "[5]; 10 mg/kg I.P.", "result": "∞ (50% en plus des animaux traités sont guéris)"}, {"measurement": "Augmentation de la durée de survie (I.L.S.: T/C×100)", "setting": "[6]; 10 mg/kg I.P.", "result": "∞ (50% en plus des animaux traités sont guéris)"}, {"measurement": "Augmentation de la durée de survie (I.L.S.: T/C×100)", "setting": "[7]; 10 mg/kg I.P.", "result": 198}, {"measurement": "Augmentation de la durée de survie (I.L.S.: T/C×100)", "setting": "[8]; 10 mg/kg I.P.", "result": 210}, {"measurement": "Augmentation de la durée de survie (I.L.S.: T/C×100)", "setting": "[9]; 10 mg/kg I.P.", "result": 182}]}
{"smiles": "CC1(C)O[C@@H]2[C@@H](COC(=O)c3ccc([N+](=O)[O-])cc3)OC(NC(=O)N(CCCl)N=O)[C@@H]2O1", "note": "(stereo partly drawn) [RFCNU]", "values": [{"measurement": "Augmentation de la durée de survie (I.L.S.: T/C×100)", "setting": "[2]; 20 mg/kg I.P.", "result": "∞ (50% en plus des animaux traités sont guéris)"}, {"measurement": "Augmentation de la durée de survie (I.L.S.: T/C×100)", "setting": "[3]; 20 mg/kg I.P.", "result": "N.S."}, {"measurement": "Augmentation de la durée de survie (I.L.S.: T/C×100)", "setting": "[4]; 20 mg/kg I.P.", "result": "N.S."}, {"measurement": "Augmentation de la durée de survie (I.L.S.: T/C×100)", "setting": "[5]; 20 mg/kg I.P.", "result": "N.S."}, {"measurement": "Augmentation de la durée de survie (I.L.S.: T/C×100)", "setting": "[6]; 20 mg/kg I.P.", "result": 167}, {"measurement": "Augmentation de la durée de survie (I.L.S.: T/C×100)", "setting": "[7]; 20 mg/kg I.P.", "result": 144}, {"measurement": "Augmentation de la durée de survie (I.L.S.: T/C×100)", "setting": "[8]; 20 mg/kg I.P.", "result": "N.S."}, {"measurement": "Augmentation de la durée de survie (I.L.S.: T/C×100)", "setting": "[9]; 20 mg/kg I.P.", "result": "N.S."}]}
